Calls of active or inactive are those of the source. The rule behind the calls is not given here.
Columns and labels:
Rattus norvegicus [1] = test: Reduction in spontaneous locomotor activity in Sprague-Dawley rat at 100 umol/kg, sc measured after 15 to 60 mins relative to saline-treated control; format: functional; parameters: scale not given: the % may be the effect or the level left
Homo sapiens = species: Homo sapiens; test: Selectivity ratio of Ki(app) for human low affinity Dopamine D2S receptor to Ki(app) for human high affinity Dopamine D2S receptor
Rattus norvegicus [2] = test: Decrease in 5-HIAA level in Sprague-Dawley rat striatum at 100 umol/kg, sc by HPLC analysis relative to saline-treated control; format: functional; parameters: scale not given: the % may be the effect or the level left
Rattus norvegicus [3] = test: Increase in DOPAC level in sc dosed Sprague-Dawley rat striatum by HPLC analysis; format: functional
D(2) dopamine receptor [4] = target: T1, D(2) dopamine receptor (Homo sapiens, UniProt P14416); test: Displacement of [3H]methylspiperone from human low affinity Dopamine D2S receptor by competition binding assay
T1 sequence (P14416 whole entry): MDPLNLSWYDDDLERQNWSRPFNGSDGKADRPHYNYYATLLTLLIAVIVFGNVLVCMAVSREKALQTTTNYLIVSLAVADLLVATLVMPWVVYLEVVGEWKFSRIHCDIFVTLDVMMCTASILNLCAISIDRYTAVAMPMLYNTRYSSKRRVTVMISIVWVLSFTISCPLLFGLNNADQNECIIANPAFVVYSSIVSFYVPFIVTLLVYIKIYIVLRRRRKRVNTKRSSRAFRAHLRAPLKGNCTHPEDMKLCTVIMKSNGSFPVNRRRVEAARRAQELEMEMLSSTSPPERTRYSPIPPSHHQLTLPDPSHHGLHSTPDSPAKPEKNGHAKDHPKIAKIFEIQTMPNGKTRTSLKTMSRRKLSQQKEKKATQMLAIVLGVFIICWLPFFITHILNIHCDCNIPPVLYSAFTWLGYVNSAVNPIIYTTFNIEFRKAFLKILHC

[5] = target: Sodium-dependent serotonin transporter (Homo sapiens, UniProt P31645); test: Displacement of [3H]imipramine from human SERT expressed in CHO cells by competition binding assay; format: cell-based; conditions: read-out: Ki(app)
Sequence of Sodium-dependent serotonin transporter (P31645 whole entry): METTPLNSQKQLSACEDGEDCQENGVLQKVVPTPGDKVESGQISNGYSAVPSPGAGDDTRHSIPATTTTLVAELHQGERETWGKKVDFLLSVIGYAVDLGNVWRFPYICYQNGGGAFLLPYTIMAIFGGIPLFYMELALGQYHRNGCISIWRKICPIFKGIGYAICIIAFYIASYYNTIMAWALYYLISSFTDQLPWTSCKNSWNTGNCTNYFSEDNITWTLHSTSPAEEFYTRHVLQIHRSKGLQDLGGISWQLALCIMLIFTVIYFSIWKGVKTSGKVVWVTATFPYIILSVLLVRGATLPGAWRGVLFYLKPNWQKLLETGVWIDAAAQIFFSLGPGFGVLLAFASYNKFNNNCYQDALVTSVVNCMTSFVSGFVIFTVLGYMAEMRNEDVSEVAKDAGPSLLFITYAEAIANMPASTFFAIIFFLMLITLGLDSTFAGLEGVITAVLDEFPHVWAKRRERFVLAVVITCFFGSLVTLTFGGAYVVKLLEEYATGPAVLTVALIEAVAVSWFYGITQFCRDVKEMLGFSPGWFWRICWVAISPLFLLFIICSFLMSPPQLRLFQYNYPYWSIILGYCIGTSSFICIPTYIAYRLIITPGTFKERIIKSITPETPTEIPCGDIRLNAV

D(2) dopamine receptor [6] = target: T1, D(2) dopamine receptor; test: Displacement of [3H]7-OH-DPAT from human high affinity Dopamine D2S receptor by competition binding assay
Rattus norvegicus [7] = test: Increase in DOPAC level in Sprague-Dawley rat striatum at 100 umol/kg, sc by HPLC analysis relative to saline-treated control; format: functional
[8] = target: T2, Amine oxidase [flavin-containing] A (Rattus norvegicus, UniProt P21396); test: Displacement of [3H]Ro 41-1049 from MAO-A in rat cerebral cortex by competition binding assay; format: tissue-based; conditions: for Ki: read-out: Ki(app)
T2 sequence (P21396 whole entry): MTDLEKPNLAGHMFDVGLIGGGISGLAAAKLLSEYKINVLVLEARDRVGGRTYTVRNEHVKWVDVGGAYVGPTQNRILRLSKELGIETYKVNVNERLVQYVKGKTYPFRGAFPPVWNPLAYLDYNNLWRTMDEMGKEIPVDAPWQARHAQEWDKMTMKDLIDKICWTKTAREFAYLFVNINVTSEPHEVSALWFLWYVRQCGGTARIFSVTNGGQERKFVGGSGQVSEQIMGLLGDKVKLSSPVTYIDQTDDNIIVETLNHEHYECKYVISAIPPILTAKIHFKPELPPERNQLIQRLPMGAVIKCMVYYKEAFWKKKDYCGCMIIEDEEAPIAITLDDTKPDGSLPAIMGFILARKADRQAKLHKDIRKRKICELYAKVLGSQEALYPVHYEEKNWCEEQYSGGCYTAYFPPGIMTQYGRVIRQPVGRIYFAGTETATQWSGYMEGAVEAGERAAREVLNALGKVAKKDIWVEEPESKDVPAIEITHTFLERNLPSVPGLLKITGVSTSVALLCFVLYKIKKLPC

[9] = Binding affinity to 5-HT receptor
[10] = Binding affinity to dopamine receptor
[11] = target: Sodium-dependent dopamine transporter (Homo sapiens) (UniProt Q01959); test: Displacement of [3H]BTCP from human DAT at 1 uM by CEREP assay
Sequence of Sodium-dependent dopamine transporter (Homo sapiens) (Q01959 whole entry): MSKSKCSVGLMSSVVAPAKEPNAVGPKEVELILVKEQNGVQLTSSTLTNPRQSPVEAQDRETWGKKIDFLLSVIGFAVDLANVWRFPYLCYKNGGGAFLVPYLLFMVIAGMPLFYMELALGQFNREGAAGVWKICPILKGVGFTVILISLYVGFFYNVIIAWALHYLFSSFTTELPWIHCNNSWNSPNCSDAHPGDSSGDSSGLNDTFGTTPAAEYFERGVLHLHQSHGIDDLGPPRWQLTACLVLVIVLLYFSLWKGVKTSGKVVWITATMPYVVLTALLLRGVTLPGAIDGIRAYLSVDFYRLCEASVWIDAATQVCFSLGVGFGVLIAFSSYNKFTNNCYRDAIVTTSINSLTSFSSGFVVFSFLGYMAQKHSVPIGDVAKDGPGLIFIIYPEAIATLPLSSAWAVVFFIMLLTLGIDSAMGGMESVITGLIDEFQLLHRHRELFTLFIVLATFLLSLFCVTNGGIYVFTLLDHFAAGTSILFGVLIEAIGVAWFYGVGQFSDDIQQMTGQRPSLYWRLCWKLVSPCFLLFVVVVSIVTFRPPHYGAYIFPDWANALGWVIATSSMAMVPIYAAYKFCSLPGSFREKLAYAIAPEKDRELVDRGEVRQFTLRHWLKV

[12] = target: T3, 5-hydroxytryptamine receptor 1A (Homo sapiens) (UniProt P08908); test: Displacement of [3H]8- OH-DPAT from human 5-HT1A at 1 uM by CEREP assay
T3 sequence (whole entry): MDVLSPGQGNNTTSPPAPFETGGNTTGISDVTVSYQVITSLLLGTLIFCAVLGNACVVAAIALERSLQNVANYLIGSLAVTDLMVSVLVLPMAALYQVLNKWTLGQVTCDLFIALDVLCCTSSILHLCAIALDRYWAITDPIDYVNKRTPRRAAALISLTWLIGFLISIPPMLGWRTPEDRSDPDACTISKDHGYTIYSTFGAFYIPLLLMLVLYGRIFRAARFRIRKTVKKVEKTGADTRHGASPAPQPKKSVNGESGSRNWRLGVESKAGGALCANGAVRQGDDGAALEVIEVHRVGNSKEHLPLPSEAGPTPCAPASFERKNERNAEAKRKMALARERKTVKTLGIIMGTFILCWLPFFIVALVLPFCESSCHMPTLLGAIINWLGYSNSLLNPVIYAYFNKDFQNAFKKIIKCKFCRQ

[13] = target: 5-hydroxytryptamine receptor 2A (Homo sapiens, UniProt P28223); test: Displacement of [3H]ketanserin from human 5-HT2A at 1 uM by CEREP assay
Sequence of 5-hydroxytryptamine receptor 2A (P28223 whole entry): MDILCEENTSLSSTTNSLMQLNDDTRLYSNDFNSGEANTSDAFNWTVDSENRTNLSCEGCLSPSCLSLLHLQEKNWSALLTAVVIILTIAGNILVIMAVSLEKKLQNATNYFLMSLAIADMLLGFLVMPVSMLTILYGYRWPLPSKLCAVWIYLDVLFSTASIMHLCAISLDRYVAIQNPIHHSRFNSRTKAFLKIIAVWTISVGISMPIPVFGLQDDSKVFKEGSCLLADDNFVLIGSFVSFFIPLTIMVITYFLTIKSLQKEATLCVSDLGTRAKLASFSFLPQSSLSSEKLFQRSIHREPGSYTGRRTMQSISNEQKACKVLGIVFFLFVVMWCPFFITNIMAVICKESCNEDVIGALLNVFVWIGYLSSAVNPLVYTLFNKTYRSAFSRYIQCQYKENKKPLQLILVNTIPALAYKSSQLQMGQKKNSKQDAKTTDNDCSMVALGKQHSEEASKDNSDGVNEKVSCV

[14] = target: T4, Alpha-2A adrenergic receptor (Homo sapiens) (UniProt P08913); test: Displacement of [3H]UK 14.304 from human adrenergic alpha2A receptor at 1 uM
T4 sequence (whole entry): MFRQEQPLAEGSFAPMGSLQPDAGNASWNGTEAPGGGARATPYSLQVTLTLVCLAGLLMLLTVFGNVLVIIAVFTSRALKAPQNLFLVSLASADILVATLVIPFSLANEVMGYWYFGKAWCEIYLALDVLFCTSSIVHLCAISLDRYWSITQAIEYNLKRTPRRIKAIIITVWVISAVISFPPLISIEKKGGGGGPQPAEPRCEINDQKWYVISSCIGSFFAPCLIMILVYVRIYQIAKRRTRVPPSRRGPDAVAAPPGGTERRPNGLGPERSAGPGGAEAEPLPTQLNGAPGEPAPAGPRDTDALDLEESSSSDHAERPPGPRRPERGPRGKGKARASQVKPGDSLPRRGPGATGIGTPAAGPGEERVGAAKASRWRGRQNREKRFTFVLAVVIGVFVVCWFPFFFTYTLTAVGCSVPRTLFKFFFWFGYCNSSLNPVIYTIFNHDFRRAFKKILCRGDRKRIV

Rattus norvegicus [15] = test: Increase in DOPAC level in Sprague-Dawley rat striatum at 33 umol/kg, sc by HPLC analysis relative to saline-treated control; format: functional
Rattus norvegicus [16] = test: Reduction in spontaneous locomotor activity in Sprague-Dawley rat at 33 umol/kg, sc measured after 15 to 60 mins relative to saline-treated control; format: functional; parameters: scale not given: the % may be the effect or the level left
Rattus norvegicus [17] = test: Decrease in 5-HIAA level in Sprague-Dawley rat striatum at 33 umol/kg, sc by HPLC analysis relative to saline-treated control; format: functional; parameters: scale not given: the % may be the effect or the level left
D(3) dopamine receptor = D(3) dopamine receptor (Homo sapiens, UniProt P35462); test: Displacement of [3H]7-OH-DPAT from human dopamine D3 receptor at 1 uM by CEREP assay
Sequence of D(3) dopamine receptor (P35462 whole entry): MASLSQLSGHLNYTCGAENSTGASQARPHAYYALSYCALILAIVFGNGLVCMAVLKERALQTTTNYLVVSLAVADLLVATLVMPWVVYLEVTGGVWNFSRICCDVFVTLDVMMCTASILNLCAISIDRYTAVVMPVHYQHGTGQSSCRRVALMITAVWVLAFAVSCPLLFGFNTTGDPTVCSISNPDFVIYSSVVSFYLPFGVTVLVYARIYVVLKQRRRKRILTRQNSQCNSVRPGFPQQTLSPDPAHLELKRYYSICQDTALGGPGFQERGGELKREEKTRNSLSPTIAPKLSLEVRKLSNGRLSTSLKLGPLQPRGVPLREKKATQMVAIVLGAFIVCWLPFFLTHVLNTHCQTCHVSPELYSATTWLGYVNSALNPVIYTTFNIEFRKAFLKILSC

[18] = target: T5, D(4) dopamine receptor (Homo sapiens) (UniProt P21917); test: Displacement of [3H]methylspiperone from human dopamine D4 receptor at 1 uM by CEREP assay
T5 sequence (whole entry): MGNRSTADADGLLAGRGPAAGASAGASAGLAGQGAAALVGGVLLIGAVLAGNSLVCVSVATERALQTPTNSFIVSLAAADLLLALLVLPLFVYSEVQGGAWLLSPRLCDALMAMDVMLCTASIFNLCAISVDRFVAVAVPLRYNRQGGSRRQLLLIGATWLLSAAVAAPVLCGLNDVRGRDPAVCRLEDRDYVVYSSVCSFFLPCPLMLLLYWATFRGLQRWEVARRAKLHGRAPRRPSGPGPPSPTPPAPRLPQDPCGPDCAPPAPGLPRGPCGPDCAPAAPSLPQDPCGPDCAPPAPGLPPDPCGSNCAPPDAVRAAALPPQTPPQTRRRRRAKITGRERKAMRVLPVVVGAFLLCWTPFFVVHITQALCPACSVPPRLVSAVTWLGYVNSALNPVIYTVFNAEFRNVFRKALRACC

SMILES | Activity (Rattus norvegicus [1]) | Ratio Ki(app) (Homo sapiens) | Activity (Rattus norvegicus [2]) | ED50 (Rattus norvegicus [3]) | Ki (D(2) dopamine receptor [4]) | Ki [5] | Ki (D(2) dopamine receptor [6]) | Activity (Rattus norvegicus [7]) | Ki [8] | other results
CCCN1CCC(c2csc3ccccc23)CC1 | 48% | 4.6 | 79% | 54 µmol/kg | 121 nM | 6.5 nM | 26 nM | 290% | 14000 nM | –
CCCN1CCC(n2ccc3ccccc32)CC1 | 92% | 10 | 87% | 126 µmol/kg | 1140 nM | 54 nM | 109 nM | 227% | 74900 nM | –
CCCN1CCC(c2cccc(S(C)(=O)=O)c2)CC1 [PRIDOPIDINE] | – | – | – | 81 µmol/kg | – | – | – | – | – | –
CCCN1CCC(c2cn(C)c3cc(F)ccc23)CC1 | 27% | 1.7 | 95% | 33 µmol/kg | 275 nM | 45 nM | 157 nM | 264% | 4050 nM | –
CCCN1CCC(n2cnc3ccccc32)CC1 | 20% | – | 98% | inactive | – | 122 nM | 10800 nM | 111% | – | IC50 (D(2) dopamine receptor [4]): > 580000 nM; IC50 [8]: > 580000 nM
CCCN1CC=C(c2c[nH]c3ccc(Cl)cc23)CC1 | – | – | – | – | – | – | – | – | – | Activity [9]: 260 nM; Activity [10]: 80 nM
CCCN1CCC(c2ccc3ccccc3c2)CC1 | 22% | 1.9 | 70% | – | 2870 nM | 127 nM | 1540 nM | 32% | 63 nM | inhibition [11]: 47%; inhibition [12]: 41%; inhibition [13]: 91%; inhibition [14]: 20%
CCCN1CCC(c2c[nH]c3cc(F)ccc23)CC1 | – | 0.6 | – | 4.1 µmol/kg | 27 nM | 45 nM | 43 nM | – | 15800 nM | inhibition [11]: 1%; Activity (Rattus norvegicus [15]): 299%; inhibition [12]: 14%; inhibition [13]: 100%; inhibition [14]: 91%; Activity (Rattus norvegicus [16]): 2.8%; Activity (Rattus norvegicus [17]): 93%
CCCN1CCC(n2c(=O)n(C)c3cc(Cl)ccc32)CC1 | 27% | 0.4 | 113% | 47 µmol/kg | 2000 nM | 2240 nM | 5180 nM | 253% | – | IC50 [8]: > 580000 nM
CCCN1CCC(c2cc3ccccc3s2)CC1 | 37% | 4 | 76% | – | 2320 nM | 130 nM | 574 nM | 28% | 18 nM | inhibition [11]: 67%; inhibition [12]: 23%; inhibition [13]: 95%; inhibition [14]: 21%
CCCN1CCC(c2cn(C)c3ccc(F)cc23)CC1 | – | 1.7 | – | 3 µmol/kg | 32 nM | 58 nM | 19 nM | – | 6860 nM | Activity (Rattus norvegicus [15]): 275%; Activity (Rattus norvegicus [16]): 9%; Activity (Rattus norvegicus [17]): 87%
CCCN1CCC[C@@H](c2cccc(S(C)(=O)=O)c2)C1 | 215% | – | 100% | 63 µmol/kg | – | – | – | 260% | – | –
CCCN1CCC(c2coc3ccccc23)CC1 | 75% | – | 84% | – | 2720 nM | 827 nM | 803 nM | 35% | 92 nM | inhibition [11]: 34%; inhibition [12]: 49%; inhibition (D(3) dopamine receptor): 28%; inhibition [18]: 26%
CCCN1CCC(N2C(=O)C(=O)c3ccccc32)CC1 | 118% | 0.9 | 95% | inactive | 12200 nM | 23800 nM | 12800 nM | 101% | – | IC50 [8]: > 580000 nM
CCCN1CCC(c2cccc3ccccc23)CC1 | 62% | 2.7 | 76% | 103 µmol/kg | 112 nM | 52 nM | 41 nM | 218% | 5420 nM | –
CCCN1CCC(c2n[nH]c3ccccc23)CC1 | – | 5.7 | – | 55 µmol/kg | 1070 nM | 5640 nM | 187 nM | – | 7440 nM | Activity (Rattus norvegicus [15]): 227%; Activity (Rattus norvegicus [16]): 7%; Activity (Rattus norvegicus [17]): 105%
CCCN1CCC(c2noc3cc(F)ccc23)CC1 | – | 5.7 | – | 4 µmol/kg | 194 nM | 29800 nM | 34 nM | – | 2230 nM | inhibition [11]: 15%; Activity (Rattus norvegicus [15]): 350%; inhibition [12]: 17%; inhibition (D(3) dopamine receptor): 83%; inhibition [18]: 37%; Activity (Rattus norvegicus [16]): 8.3%; Activity (Rattus norvegicus [17]): 111%

Source: ChEMBL document CHEMBL2203152, “Systematic in vivo screening of a series of 1-propyl-4-arylpiperidines against dopaminergic and serotonergic properties in rat brain: a scaffold-jumping approach” (J Med Chem, 2012)
